Like-named read-outs stand apart in the source and are kept apart here.
Assays:
[1] = tested on: NF-κB; assay: NF-κB assay: THP1-NF-κB-LUC cells, LPS-stimulated secreted luciferase; type: cell-based; conditions: THP1-NF-κB-LUC cells, read-out: IC50 (NF-κB assay)
In short: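 THP1-NF-κB-LUC cells (25k/well) were pretreated with compounds for 2 h, then stimulated with LPS (10 ng/mL) for 18 h. Secreted luciferase was measured and normalized to vehicle, and IC50 was fitted from the concentration series.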

[2] = tested on: TNF release; assay: TNF assay: TNF release from LPS-stimulated human PBMCs (TNF ELISA); type: cell-based; conditions: PBMC, read-out: IC50 (TNF assay)
In short: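 TNF ELISA on supernatants read-out; cells were 10k human PBMCs/well given LPS at 10 ng/mL for 18 h after a 2 h compound pre-incubation across a concentration series, with IC50 derived for suppression of TNF secretion.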

[3] = compounds 2 hours before LPS (10 ng/mL) for 18 hours, secreted luciferase
[4] = human PBMCs, compounds 2 hours before LPS (10 ng/ml) for 18 hours, supernatant TNF ELISA
[5] = LPS-stimulated human PBMCs, TNF ELISA

IC50 [1, 3] [µM] | IC50 [2, 4] [µM] | IC50 ([1]; LPS-stimulated) [µM] | IC50 [2, 5] [µM] | Compound
> 10 | > 10 |  |  | COc1ccc2[nH]cc(S(=O)(=O)c3ccc(F)cc3)c(=O)c2n1 [BC19202]
 |  | > 10 | > 10 | O=S(=O)(c1ccccc1)c1cnn(-c2ccccc2)c1 [BC19204]
 |  | 1 to 10 | > 10 | O=S(=O)(c1ccccc1)c1ccn(-c2ccccc2)n1 [BC19205]
1 to 10 | > 10 |  |  | CC1Oc2cc(S(=O)(=O)Nc3ccccc3)c(Cl)cc2NC1=O (centres unmarked) [BC19206]
> 10 | > 10 |  |  | CC(C)NS(=O)(=O)c1cc2c(cc1Cl)NC(=O)C(C)O2 (centres unmarked) [BC19207]
> 10 | > 10 |  |  | CC1Oc2cc(S(=O)(=O)N3CCCC3)c(Cl)cc2NC1=O (centres unmarked) [BC19208]
1 to 10 | > 10 |  |  | CCNS(=O)(=O)c1cc2c(cc1Cl)NC(=O)C(C)O2 (centres unmarked) [BC19209]
< 0.1 | > 10 |  |  | CCC1Oc2cc(S(=O)(=O)Nc3ccc(C(C)C)cc3)c(Cl)cc2NC1=O (centres unmarked) [BC19210]
0.1 to 1 | > 10 |  |  | CCC1Oc2cc(S(=O)(=O)Nc3ccc(OC)cc3)c(Cl)cc2NC1=O (centres unmarked) [BC19211]
< 0.1 | > 10 |  |  | CCC1Oc2cc(S(=O)(=O)Nc3ccc(C)c(F)c3)c(Cl)cc2NC1=O (centres unmarked) [BC19212]
0.1 to 1 | > 10 |  |  | CCC1Oc2cc(S(=O)(=O)Nc3cccc(SC)c3)c(Cl)cc2NC1=O (centres unmarked) [BC19213]
> 10 | > 10 |  |  | CCCNS(=O)(=O)c1cc2c(cc1Cl)NC(=O)C(CC)O2 (centres unmarked) [BC19214]
1 to 10 | > 10 |  |  | CCC1Oc2cc(S(=O)(=O)Nc3cc(Cl)ccc3C)c(Cl)cc2NC1=O (centres unmarked) [BC19215]
< 0.1 | > 10 |  |  | CCc1ccc(NS(=O)(=O)c2cc3c(cc2Br)NC(=O)C(C)O3)cc1 (centres unmarked) [BC19216]
> 10 | > 10 |  |  | CC1Oc2cc(S(=O)(=O)N3CCOCC3)c(Br)cc2NC1=O (centres unmarked) [BC19217]
> 10 | > 10 |  |  | CC(C)CNS(=O)(=O)c1cc2c(cc1Br)NC(=O)C(C)O2 (centres unmarked) [BC19218]
> 10 | > 10 |  |  | CC1Oc2cc(S(=O)(=O)N3CCN(C)CC3)c(Br)cc2NC1=O (centres unmarked) [BC19219]
0.1 to 1 | > 10 |  |  | CCC1Oc2cc(S(=O)(=O)Nc3cccc(F)c3)c(Br)cc2NC1=O (centres unmarked) [BC19220]
0.1 to 1 | > 10 |  |  | CCC1Oc2cc(S(=O)(=O)Nc3cccc(Cl)c3)c(Br)cc2NC1=O (centres unmarked) [BC19221]
> 10 | > 10 |  |  | CCCNS(=O)(=O)c1cc2c(cc1Br)NC(=O)C(CC)O2 (centres unmarked) [BC19222]
> 10 | > 10 |  |  | CCC1Oc2cc(S(=O)(=O)NC3CCCCC3)c(Br)cc2NC1=O (centres unmarked) [BC19223]
0.1 to 1 | > 10 |  |  | CCC1Oc2cc(S(=O)(=O)Nc3ccc(C)cc3)c(Br)cc2NC1=O (centres unmarked) [BC19224]
0.1 to 1 | > 10 |  |  | Cc1ccc(NS(=O)(=O)c2cc(Br)cc3c2OC(C)C(=O)N3)cc1Cl (centres unmarked) [BC19225]
1 to 10 | > 10 |  |  | CC1Oc2c(cc(Br)cc2S(=O)(=O)N2CCOCC2)NC1=O (centres unmarked) [BC19226]
> 10 | > 10 |  |  | CC(C)CNS(=O)(=O)c1cc(Br)cc2c1OC(C)C(=O)N2 (centres unmarked) [BC19227]
> 10 | > 10 |  |  | CC1Oc2c(cc(Br)cc2S(=O)(=O)N2CCN(C)CC2)NC1=O (centres unmarked) [BC19228]
1 to 10 | > 10 |  |  | CCCNS(=O)(=O)c1cc(Br)cc2c1OC(CC)C(=O)N2 (centres unmarked) [BC19229]
< 0.1 | > 10 |  |  | CCC1Oc2c(cc(Br)cc2S(=O)(=O)NCc2ccccc2)NC1=O (centres unmarked) [BC19230]

IC50 [1, 3] [µM] | IC50 [2, 4] [µM] | IC50 ([1]; LPS-stimulated) [µM] | IC50 [2, 5] [µM] | Compound
< 0.1 | > 10 |  |  | CCC1Oc2c(cc(Br)cc2S(=O)(=O)Nc2cccc(F)c2)NC1=O (centres unmarked) [BC19231]
< 0.1 | > 10 |  |  | CCC1Oc2c(cc(Br)cc2S(=O)(=O)Nc2cccc(Cl)c2)NC1=O (centres unmarked) [BC19232]
1 to 10 | 1 to 10 |  |  | CCC1Oc2c(cc(Br)cc2S(=O)(=O)NC2CCCCC2)NC1=O (centres unmarked) [BC19233]
< 0.1 | 1 to 10 |  |  | CCC1Oc2c(cc(Br)cc2S(=O)(=O)Nc2ccc(C)cc2)NC1=O (centres unmarked) [BC19234]
 |  | > 10 | > 10 | CC1Nc2cc(S(=O)(=O)N3CCCC3)ccc2NC1=O (centres unmarked) [BC19235]
 |  | > 10 | > 10 | CNC(=O)N1c2cc(S(=O)(=O)N3CCCC3)ccc2NC(=O)C1C (centres unmarked) [BC19236]
 |  | < 0.1 | > 10 | O=C(NCCN1CCOCC1)c1ccc2nc(-c3ccc(F)cc3)c(-c3ccc(F)cc3)nc2c1 [BC19237]
 |  | < 0.1 | > 10 | Fc1ccc(-c2nc3ccc(-c4nnnn4CCN4CCOCC4)cc3nc2-c2ccc(F)cc2)cc1 [BC19238]
 |  | 0.1 to 1 | > 10 | O=C(Nc1ccc2nc(-c3ccc(F)cc3)c(-c3ccc(F)cc3)nc2c1)OCC(F)(F)F [BC19239]
 |  | < 0.1 | > 10 | Fc1ccc(-c2nc3ccc(-c4cn(CCN5CCOCC5)nn4)cc3nc2-c2ccc(F)cc2)cc1 [BC19240]
 |  | 1 to 10 | > 10 | Cc1nc(C)c(-c2ccc3nc(-c4ccc(F)cc4)c(-c4ccc(F)cc4)nc3c2)s1 [BC19241]
 |  | 0.1 to 1 | > 10 | Fc1ccc(-c2nc3ccc(-c4cccnc4)cc3nc2-c2ccc(F)cc2)cc1 [BC19242]
 |  | 0.1 to 1 | > 10 | CS(=O)(=O)c1cncc(-c2ccc3nc(-c4ccc(F)cc4)c(-c4ccc(F)cc4)nc3c2)c1 [BC19243]
 |  | > 10 | > 10 | CN1CCOc2cc(-c3ccc4nc(-c5ccc(F)cc5)c(-c5ccc(F)cc5)nc4c3)ccc21 [BC19244]
 |  | 1 to 10 | > 10 | Fc1ccc(-c2nc3ccc(-c4ccncc4)cc3nc2-c2ccc(F)cc2)cc1 [BC19245]
 |  | 1 to 10 | > 10 | CCc1nnc(-c2ccc3nc(-c4ccc(F)cc4)c(-c4ccc(F)cc4)nc3c2)o1 [BC19246]
 |  | 1 to 10 | > 10 | CCCc1nnc(-c2ccc3nc(-c4ccc(F)cc4)c(-c4ccc(F)cc4)nc3c2)[nH]1 [BC19247]
 |  | > 10 | > 10 | CS(=O)(=O)c1ccc(-c2nc3ccc(-c4ncco4)cc3nc2-c2ccc(F)cc2)s1 [BC19248]
 |  | 1 to 10 | > 10 | Cc1cnc(-c2ccc3nc(-c4ccc(F)cc4)c(-c4cccs4)nc3c2)o1 [BC19249]
 |  | < 0.1 | > 10 | Fc1ccc(-c2nc3ccc(-c4nnco4)cc3nc2-c2ccc(F)cc2)cc1 [BC19250]
 |  | < 0.1 | 1 to 10 | O=C(Nc1ccc2nc(-c3ccc(F)cc3)c(-c3ccc(F)cc3)nc2c1)C1CCNCC1 [BC19251]
< 0.1 | > 10 |  |  | O=c1c(S(=O)(=O)c2ccc(F)c(F)c2)c[nH]c2c(F)ccc(F)c12 [BC19252]
< 0.1 | > 10 |  |  | Cc1ccc(F)c2[nH]cc(S(=O)(=O)c3ccc(F)c(F)c3)c(=O)c12 [BC19253]
< 0.1 | > 10 |  |  | Cc1ccc(Cl)c2c(=O)c(S(=O)(=O)c3ccc(F)c(F)c3)c[nH]c12 [BC19254]
1 to 10 | > 10 |  |  | COc1ccc(OC)c2c(=O)c(S(=O)(=O)c3ccc(F)c(F)c3)c[nH]c12 [BC19255]
1 to 10 | > 10 |  |  | O=c1c(S(=O)(=O)c2ccc(F)c(F)c2)c(O)[nH]c2ncccc12 [BC19256]
> 10 | > 10 |  |  | O=c1c(S(=O)(=O)c2ccc(F)c(F)c2)cnc2ccccn12 [BC19257]

Reference: patent US12606528B2, “Methods and materials for inhibiting NF-kB activity” (University of Pittsburgh - Of the Commonwealth System of …, priority 2019, dated 2026)
